Source: BindingDB's records for doi:10.1111/j.1600-0773.1998.tb01469.x (Case Western Reserve University, 1998)
Where “and” joins values, the source holds several entries; their conditions need not be identical. Equal entries are not always repeated.

Target: T1, Muscarinic acetylcholine receptor M4 (Homo sapiens, UniProt P08173)
T1 sequence (P08173 whole entry): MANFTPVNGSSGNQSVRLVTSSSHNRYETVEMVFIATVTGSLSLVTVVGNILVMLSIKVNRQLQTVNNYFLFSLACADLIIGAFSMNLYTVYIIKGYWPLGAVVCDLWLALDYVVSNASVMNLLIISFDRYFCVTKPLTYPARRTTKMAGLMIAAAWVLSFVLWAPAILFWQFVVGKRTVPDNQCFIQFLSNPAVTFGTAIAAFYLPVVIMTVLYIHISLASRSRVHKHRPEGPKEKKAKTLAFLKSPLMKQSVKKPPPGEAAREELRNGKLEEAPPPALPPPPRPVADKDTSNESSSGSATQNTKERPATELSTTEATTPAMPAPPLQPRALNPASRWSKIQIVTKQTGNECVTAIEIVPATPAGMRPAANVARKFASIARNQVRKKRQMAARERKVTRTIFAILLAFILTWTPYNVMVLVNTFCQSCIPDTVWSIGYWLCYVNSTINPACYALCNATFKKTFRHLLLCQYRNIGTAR

SMILES | Ki
COc1ccccc1CNCCCCCCNCCCCCCCCNCCCCCCNCc1ccccc1OC [METHOCTRAMINE] | 66.1 nM and 72.4 nM
O[Si](CCCN1CCCCC1)(c1ccccc1)C1CCCCC1 (configuration not stated) [HHSiD] | 4.16 nM and 16.6 nM
